Measurements from patent US20230077811A1, “ACTIVATION OF NEUROPEPTIDE RECEPTORS ON PLASMACYTOID DENDRITIC CELLS TO TREAT OR PREVENT OCULAR DISEASES ASSOCIATED WITH NEOVASCULARIZATION AND INFLAMMATION” (Tufts Medical Center, Inc., priority 2020, published 2023).
Where two headings read alike, the source gives them in different places. One block for each compound: values may come before it.

What was measured:
suture induced CNV = experiment: Suture induced model of corneal neovascularization (CNV), CD31 whole mount quantification; assay type: in vivo, C57BL/6 mice
[1] = system: CNV in C57BL/6 to BALB/c corneal transplants; experiment: High-risk corneal transplant model (C57BL/6 to BALB/c), CNV quantified by CD31 staining; assay type: in vivo, BALB/c mice; conditions: subconjunctival THIQ (10 ug/mL) every other day for 14 days, versus saline
NF-kB = experiment: Immunofluorescence of NF-kB (RelB, c-Rel) nuclear localization in sorted pDCs treated with THIQ; assay type: cell-based, murine; conditions: THIQ 10 ug/mL, 24 hours, compared to control pDCs
murine pDCs = experiment: Flow cytometry of murine pDCs incubated with THIQ for angiostatic proteins; assay type: cell-based; conditions: THIQ 10 ug/mL
human corneal pDCs = experiment: Flow cytometry of human corneal pDCs incubated with THIQ for angiostatic proteins; assay type: cell-based; conditions: THIQ 10 ug/mL
Excerpt: Phenotypically murine and human pDCs express divergent sets of surface markers as reviewed by Rogers et al. (Rogers et al., Am. J. Transplant. 13:1125-1133, 2013). Human pDCs express the pan leukocyte marker CD45, BDCA2 (CD303), and BDCA4 (neuropilin-1). To examine the possibility that murine but not human pDCs express angiostatic molecules, human corneal eye bank research samples for ES, PF-4, TSP-1 and TIMP3 were examined. Human corneal tissues were obtained and processed by […] Eyebank (Ann Arbor, Mich., USA) according to a standardized eye banking protocols, and procedures. […] The exclusion criterion was tissue from donors with corneal neovascularization, or a history of diabetes, cancer, or keratitis. […] Pharmacol. Toxicol. 101:416-420, 2007; Sebhat et al., J. Med. Chem. 45:4589-4593, 2002) was utilized. The ability of THIQ (10 ug/mL) to impact murine and human pDCs was tested.

[2] = system: phospho-PKCδ/θ (Ser643/676); experiment: Immunoblot of PKC isoform phosphorylation in FACS-sorted pDCs treated with THIQ; assay type: cell-based, murine
Protocol: Previous studies have shown the MC4 receptor to couple to all three major classes of G proteins, Gs, Gi/o, and Gq depending on cell type (Tao, Endocr. Rev. 31:506-543, 2010). To test pDC MC4 signaling, FACS-sorted pDCs were incubated with THIQ (10 ug/mL) for 5, 15, or 30 minutes. Protein kinase C (PKC) isoform phosphorylation was examined by phospho-PKC specific antibodies and immunoblotting. Specifically, Splenic pDCs were FACs sorted as previously described. Five hundred thousand pDCs were used per condition and lysed directly with chilled 1× radioimmunoprecipitation assay (RIPA) buffer or 1× Laemmli Buffer on ice. Samples were diluted in NuPAGE sample loading buffer (ThermoFisher) and 1× NuPAGE Sample Reducing Agent (ThermoFisher) and heated to 70° C. for 10 minutes. Protein lysates were resolved on a 10% Bis-Tris SDS gel (ThermoFisher) and transferred to a nitrocellulose membrane (ThermoFisher). Membranes were blocked with odyssey blocking buffer (Licor) for one hour and incubated with protein specific primary antibodies (1:100 or 1:200) overnight at 4° C. Membranes were washed with blocking buffer and secondary antibodies were diluted (1:5000 or 1:15000) and incubated with membranes for 60 minutes at room temperature. Membranes were imaged using an Odyssey® CLx Imaging System (Licor). Image analysis was done using Image Studio software. Protein sampling kits for PKC, and NF-κB signaling antibodies were purchased from Cell signaling (Phospho-PKC Antibody Sampler Kit #9921 and NF-κB Pathway Sampler Kit #9936).

splenic pDCs = experiment: Flow cytometry of splenic pDCs for ES and TSP-1 after 24 hours with neuropeptide receptor agonists; assay type: cell-based, C57BL/6 mice

Compound: O=C(N[C@H](Cc1ccc(Cl)cc1)C(=O)N1CCC(Cn2cncn2)(C2CCCCC2)CC1)[C@H]1Cc2ccccc2CN1 [THIQ, (3R)—N-[(2R)-3-(4-chlorophenyl)-1-[4-cyclohexyl-4-(1,2,4-triazol-1-ylmethyl)piperidin-1-yl]-1-oxopropan-2-yl]-1,2,3,4-tetrahydroisoquinoline-3-carboxamide]
Reduction of suture induced CNV (suture induced CNV; subconjunctival injection of THIQ (10 ug/mL) every other day for 14 days, versus saline): 46% | CNV, MC4 siRNA with THIQ versus control siRNA (suture induced CNV; sutured C57BL/6, injected every other day for two weeks, THIQ together with siRNA against MC4): No statistical difference | CNV in corneal transplants [1]: reduced | RelB nuclear localization (NF-kB): Increased | c-Rel nuclear localization (NF-kB): not | ES mean fluorescence intensity (MFI) (murine pDCs): increased | PF4 mean fluorescence intensity (MFI) (murine pDCs): increased | TIMP3 mean fluorescence intensity (MFI) (murine pDCs): increased | TSP-1 mean fluorescence intensity (MFI) (murine pDCs): increased | ES mean fluorescence intensity (MFI) (human corneal pDCs): increased | PF4 mean fluorescence intensity (MFI) (human corneal pDCs): increased | TIMP3 mean fluorescence intensity (MFI) (human corneal pDCs): increased | TSP-1 mean fluorescence intensity (MFI) (human corneal pDCs): increased | Phosphorylation of additional PKC isoforms ([2]; THIQ 10 ug/mL, 5, 15 or 30 minutes): not observed | PKCδ/θ (Ser643/676) phosphorylation ([2]; THIQ 10 ug/mL, 15 minutes, normalized to actin): decreased | PKCδ/θ (Ser643/676) phosphorylation ([2]; THIQ 10 ug/mL, 30 minutes, normalized to actin): decreased | phospho-PKCδ/θ (Ser643/676) phosphorylation ([2]; THIQ 10 ug/mL, five minutes, normalized to actin): Increased

pDC ES protein expression (splenic pDCs; 24 hours, compared to baseline): mixed impact | pDC TSP-1 protein expression (splenic pDCs; 24 hours, compared to baseline): mixed impact
Compound: COC(=O)[C@H](CCCN=C(N)N)NC(=O)CCCc1c(-c2ccccc2)[nH]c2c(F)cc(F)cc12 [L-803,087]

Compound: Dynorphin A
pDC ES protein expression (splenic pDCs): increased | pDC TSP-1 protein expression (splenic pDCs): increased
